Among the data in US20230357253A1, “AGONISTS OF STIMULATOR OF INTERFERON GENES STING” (THE SCRIPPS RESEARCH INSTITUTE, priority 2020, published 2023) are EC50 and IC50 values, retold here.

One assay relates to THP-1 Lucia ISG cells. Put plainly: ISRE-luciferase assay (ISG-LUC activation). It counts as cell-based. The note with it: Homo sapiens, THP1-Lucia ISG, 24 hours, luciferase reporter. The protocol: ISRE-luciferase assay. THP-1 Lucia ISG cells were resuspended in low-serum growth media (2% FBS) at a density of 5×10^5 cells/ml and treated with test article or vehicle (DMSO). 50 μL of cells were seeded into each well of a 384-well white greiner plates and incubated for 24 hours. To evaluate expression of the luciferase reporter, 30 μl of Quanti-luc (Invivogen) detection reagent was added to each well and luminescence was read using an Envision plate reader (Perkin Elmer) set with an integration time of 0.1 seconds. For each cell type, luminescence signals for test article samples were normalized to vehicle-treated samples and reported as relative light units (RLU).

Another assay has as its target human STING protein (Homo sapiens (Human), UniProt Q86WV6). Put plainly: WT STING binding assay (HTRF, competition with labeled 2′3′cGAMP). The note with it: recombinant 6×His-tagged human STING, three hours at room temperature. The procedure: WT STING binding assay (Cisbio, Catalog #64BDSTGPEH). […] Upon proximity of the two dyes, the excitation of the donor by the flash lamp on the PHERAstar FSX plate reader triggers a Fluorescence Resonance Energy Transfer (FRET) towards the acceptor, which in turn fluoresces at 665 nm. To assess the ability of the synthetic small molecule STING ligands to bind to human STING, a competitive assay format was applied. A 10-point titration of each of the synthetic ligands in 5 uL were transferred into a 384 well plate, followed by 20 uL of assay buffer containing the 6×His-tagged human STING protein and labeled 2′3′cGAMP ligand and incubated for three hours at room temperature. The raw values obtained from the PHERAstar were used to calculate the reported IC50 values (the signal is inversely proportional to the binding of the synthetic ligand) through curve fitting in Genedata. The percent inhibition was calculated based upon the maximal amount of binding by synthetic compound versus the maximum binding of unlabeled 2′3′ cGAMP which was used as a control in each assay.

human STING protein, sequence (Q86WV6 whole entry): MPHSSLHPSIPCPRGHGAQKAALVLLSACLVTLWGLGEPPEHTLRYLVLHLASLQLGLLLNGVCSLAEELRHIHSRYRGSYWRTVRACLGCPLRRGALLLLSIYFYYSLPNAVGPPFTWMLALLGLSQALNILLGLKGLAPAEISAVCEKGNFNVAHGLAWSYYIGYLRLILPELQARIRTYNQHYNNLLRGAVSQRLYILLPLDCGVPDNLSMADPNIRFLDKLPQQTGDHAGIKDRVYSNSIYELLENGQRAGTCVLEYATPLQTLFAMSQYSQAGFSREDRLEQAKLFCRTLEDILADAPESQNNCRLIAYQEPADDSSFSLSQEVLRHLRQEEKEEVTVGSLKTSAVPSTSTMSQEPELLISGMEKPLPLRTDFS

Regarding `O=C(Nc1cc(OCCCCOc2cc(NC(=O)c3ccc4nnnn4n3)c(C(=O)O)cc2F)ccc1C(=O)O)c1ccc2nnnn2n1` [Compound 1, 4-(4-(4-carboxy-3-(tetrazolo[1,5-b]pyridazine-6-carboxamido)phenoxy)butoxy)-5-fluoro-2-(tetrazolo[1,5-b]pyridazine-6-carboxamido)benzoic acid], in the assay with THP-1 Lucia ISG cells, the EC50 was 500 to 5000 nM. The IC50 on human STING protein lay within 100 to 1000 nM.
As to `O=C(Nc1cc(OCCCCOc2cnc(C(=O)O)c(NC(=O)c3ccc(-n4ccnc4)nn3)c2)c(F)cc1C(=O)O)c1ccc(-n2ccnc2)nn1` [Compound 69], the IC50 on human STING protein fell in the range of 100 to 1000 nM.
As to `CC(=O)Nc1cc(CCCc2cc(NC(=O)c3ccc(-n4ccnc4)nn3)c(C(=O)O)cc2F)ccc1C(=O)O` [Compound 73], the IC50 at human STING protein fell in the range of 100 to 1000 nM.
For `O=C(Nc1cc(OCCCCOc2cc(NC(=O)c3ccc(-n4ccnc4)nn3)c(C(=O)O)cc2Cl)ccc1C(=O)O)c1ccc(-n2ccnc2)nn1` [Compound 81], on human STING protein, the IC50 is 100 to 1000 nM.
Consider `O=C(Nc1cc(CCCc2cc(NC(=O)c3ccc4cnnn4n3)c(C(=O)O)cc2F)c(F)cc1C(=O)O)c1ccc(O)nn1` [Compound 120], for which the IC50 on human STING protein lay within 100 to 1000 nM.
On the same count and under the same terms, then `CCOC(=O)CCC(=O)c1cc2cc(OCCc3cc(NC(=O)c4ccc5nnnn5n4)c(C(=O)O)cc3F)c(OC)cc2s1` [Compound 122], with 100 to 1000 nM.
`COC(=O)c1cc(F)c(OCCc2c(OC)cc(NC(=O)c3ccc(-n4ccnc4)nn3)c(C(=O)OC)c2F)cc1NC(=O)c1ccc(-n2ccnc2)nn1` [Compound 150] registered an EC50 in the assay on THP-1 Lucia ISG cells of more than 5000 nM.
Still for that read-out and setting: the figure for `COC(=O)c1cc(F)c(OCCc2cc(NC(=O)c3ccc(-n4ccnc4)nn3)c(C(O)C(=O)OC)cc2F)cc1NC(=O)c1ccc(-n2ccnc2)nn1` (centres unmarked) [Compound 152] is 500 to 5000 nM.
On to `O=C(Nc1cc(CCOc2cc(NC(=O)c3ccc(-n4ccnc4)nn3)c(P(=O)(O)O)cc2F)c(F)cc1C(=O)O)c1ccc(-n2ccnc2)nn1` [Compound 153], for which the IC50 at human STING protein was 100 to 1000 nM.
As to `COC(=O)c1cc(F)c(COCc2cc(NC(=O)c3ccc(-n4ccnc4)nn3)c(C(=O)OC)cc2F)cc1NC(=O)c1ccc(-n2ccnc2)nn1` [Compound 155], the EC50 in the assay on THP-1 Lucia ISG cells was less than 50 nM.
On to `COc1cc(C(=O)O)c(NC(=O)c2ccc(-n3ccnc3)nn2)cc1OCCc1cc(C(=O)O)c(NC(=O)c2ccc(-n3ccnc3)nn2)cc1Cl` [Compound 156], for which the EC50 in the assay on THP-1 Lucia ISG cells was in the range of 50 to 500 nM.
`COC(=O)c1cc(F)c(OCCc2cc(NC(=O)c3ccc(-n4ccnc4)nn3)c(C(=O)OC)cc2C#N)cc1NC(=O)c1ccc(-n2ccnc2)nn1` [Compound 157]: the EC50 in the assay on THP-1 Lucia ISG cells fell in the range of 500 to 5000 nM.
On to `O=C(Nc1cc(OCCc2cc(NC(=O)c3ccc(-n4ccnc4)nn3)c(C(=O)O)cc2F)c(F)cc1C(=O)O)c1ccc(-c2cn[nH]c2)nn1` [Compound 158], for which the IC50 at human STING protein fell in the range of 100 to 1000 nM.
`O=C(Nc1cc(CCCc2cc(NC(=O)c3ccc(-n4ccnc4)nn3)c(C(=O)O)cc2F)c(F)cc1C(=O)O)c1ccc(-c2cn[nH]c2)nn1` [Compound 159] had an EC50 in the assay with THP-1 Lucia ISG cells of 50 to 500 nM.
Same read-out and setting: the figure for `N#Cc1cc(C(=O)O)c(NC(=O)c2ccc(-n3ccnc3)nn2)cc1CCOc1cc(NC(=O)c2ccc(-n3ccnc3)nn2)c(C(=O)O)cc1F` [Compound 162] is 50 to 500 nM; for `COC(=O)c1cc(F)c(CCOc2cc(NC(=O)c3ccc(-n4ccnc4)nn3)c(C(=O)OC)cc2C#N)cc1NC(=O)c1ccc(-n2ccnc2)nn1` [Compound 163] it is 500 to 5000 nM.
With `O=C(Nc1cc(CCCc2cc(NC(=O)c3ccc(-n4ccnc4)nn3)c(C(=O)O)s2)c(F)cc1C(=O)O)c1ccc(-n2ccnc2)nn1` [Compound 164], the EC50 in the assay on THP-1 Lucia ISG cells lay within 50 to 500 nM.
Regarding `COC(=O)c1cc(F)c(CCCc2cc(NC(=O)c3ccc(-n4ccnc4)nn3)c(C(=O)OC)s2)cc1NC(=O)c1ccc(-n2ccnc2)nn1` [Compound 165], the EC50 in the assay on THP-1 Lucia ISG cells lay within 50 to 500 nM.
The same measure, in the same setting: then `O=C(Nc1cc(OCCc2cc(C(=O)O)c(NC(=O)c3ccc(-n4ccnc4)nn3)cc2Cl)c(F)cc1C(=O)O)c1ccc(-n2ccnc2)nn1` [Compound 166], with 50 to 500 nM; and `O=C(Nc1cc(OCCCOc2cc(NC(=O)c3ccc(-n4ccnc4)nn3)c(C(=O)O)cc2F)c(F)cc1C(=O)O)c1ccc(-n2ccnc2)nn1` [Compound 168], with 50 to 500 nM; and `O=C(Nc1cc(OCCc2cc(C(=O)O)c(NC(=O)c3ccc4nnnn4n3)cc2F)c(F)cc1C(=O)O)c1ccc(-n2ccnc2)nn1` [Compound 169], with 50 to 500 nM.
Turning to `O=C(Nc1cc(CCCc2cc(NC(=O)c3ccc(-n4ccnc4)nn3)c(C(=O)O)cc2Cl)c(F)cc1C(=O)O)c1ccc(-n2ccnc2)nn1` [Compound 174], the 50% effective concentration (EC50) with THP-1 Lucia ISG cells fell in the range of 50 to 500 nM.
Consider `O=C(Nc1cc(COc2cc(NC(=O)c3ccc(-n4ccnc4)nn3)c(C(=O)O)cc2F)c(F)cc1C(=O)O)c1ccc(-n2ccnc2)nn1` [Compound 175], for which, in the assay with THP-1 Lucia ISG cells, the EC50 lay in the range of 500 to 5000 nM.
Same read-out and setting: then `O=C(Nc1cc(OCCc2c(F)cc(NC(=O)c3ccc(-n4ccnc4)nn3)c(C(=O)O)c2F)c(F)cc1C(=O)O)c1ccc(-n2ccnc2)nn1` [Compound 177], with less than 50 nM.
For `O=C(Nc1cc(F)c(CCOc2cc(C(=O)O)c(NC(=O)c3ccc(-n4ccnc4)nn3)cc2F)cc1C(=O)O)c1ccc(-n2ccnc2)nn1` [Compound 178], the IC50 on human STING protein was in the range of 100 to 1000 nM.
With `O=C(Nc1cc(OCCc2cc(NC(=O)c3ccc(-n4ccnc4)nn3)c(-c3nn[nH]n3)cc2F)c(F)cc1C(=O)O)c1ccc(-n2ccnc2)nn1` [Compound 179], the IC50 at human STING protein fell in the range of 100 to 1000 nM.
In turn, `O=C(Nc1cc(CCc2cc(C(=O)O)c(NC(=O)c3ccc(-n4ccnc4)nn3)cc2F)c(F)cc1C(=O)O)c1ccc(-n2ccnc2)nn1` [Compound 180] returned an EC50 in the assay with THP-1 Lucia ISG cells of more than 5000 nM.
On to `N#Cc1cc(C(=O)O)c(NC(=O)c2ccc(-n3ccnc3)nn2)cc1CCCc1cc(NC(=O)c2ccc(-n3ccnc3)nn2)c(C(=O)O)cc1F` [Compound 182], for which the EC50 with THP-1 Lucia ISG cells lay in the range of 50 to 500 nM.
With `NC(=O)c1cc(F)c(CCOc2cc(NC(=O)c3ccc(-n4ccnc4)nn3)c(C(=O)O)cc2F)cc1NC(=O)c1ccc(-n2ccnc2)nn1` [Compound 186], the IC50 on human STING protein is more than 1000 nM.
Consider `COC(=O)c1cc(F)c(OCCc2cc(C(=O)OC)c(NC(=O)c3ccc(-n4ccnc4)nn3)cc2C#N)cc1NC(=O)c1ccc(-n2ccnc2)nn1` [Compound 188], for which the EC50 in the assay with THP-1 Lucia ISG cells is more than 5000 nM.
For `COc1cc(NC(=O)c2ccc(-n3ccnc3)nn2)c(C(=O)O)c(F)c1OCCc1cc(NC(=O)c2ccc(-n3ccnc3)nn2)c(C(=O)O)cc1F` [Compound 189], the IC50 at human STING protein lay in the range of 100 to 1000 nM.
Consider `O=C(Nc1cc(OCc2cc(C(=O)O)c(NC(=O)c3ccc(-n4ccnc4)nn3)cc2F)c(F)cc1C(=O)O)c1ccc(-n2ccnc2)nn1` [Compound 190], for which the EC50 in the assay on THP-1 Lucia ISG cells is more than 5000 nM.
On the same count and under the same terms, the figure for `O=C(Nc1cc(OCCOc2cc(C(=O)O)c(NC(=O)c3ccc(-n4ccnc4)nn3)cc2F)c(F)cc1C(=O)O)c1ccc(-n2ccnc2)nn1` [Compound 191] is 50 to 500 nM; for `CC(Cc1cc(NC(=O)c2ccc(-n3ccnc3)nn2)c(C(=O)O)cc1F)Cc1cc(NC(=O)c2ccc(-n3ccnc3)nn2)c(C(=O)O)cc1F` [Compound 194] it is 50 to 500 nM; for `O=C(Nc1cc(CCSc2cc(NC(=O)c3ccc(-n4ccnc4)nn3)c(C(=O)O)cc2F)c(F)cc1C(=O)O)c1ccc(-n2ccnc2)nn1` [Compound 195] it is less than 50 nM.
`O=C(Nc1cc(CCOc2cc(NC(=O)c3ccc(-n4ccnc4)nn3)c(C(=O)O)cc2F)c(F)cc1CO)c1ccc(-n2ccnc2)nn1` [Compound 198]: the half-maximal inhibitory concentration (IC50) on human STING protein was in the range of 100 to 1000 nM.
In the case of `C=C(Cc1cc(NC(=O)c2ccc(-n3ccnc3)nn2)c(C(=O)O)cc1F)Cc1cc(NC(=O)c2ccc(-n3ccnc3)nn2)c(C(=O)O)cc1F` [Compound 199], the EC50 with THP-1 Lucia ISG cells lay in the range of 50 to 500 nM.
On to `Cn1nccc1-c1ccc(C(=O)Nc2cc(CCCc3cc(NC(=O)c4ccc(-c5ccnn5C)nn4)c(C(=O)O)cc3F)c(F)cc2C(=O)O)nn1` [Compound 201], for which the IC50 on human STING protein was 100 to 1000 nM.
The compound `O=C(Nc1cc(OCCc2cc(C(=O)O)c(NC(=O)c3ccc(-c4cn[nH]c4)nn3)cc2F)c(F)cc1C(=O)O)c1ccc(-c2cn[nH]c2)nn1` [Compound 204] displayed an EC50 in the assay with THP-1 Lucia ISG cells of 50 to 500 nM.
For the compound `O=C(Nc1cc(CCOc2cc(NC(=O)c3ccc(-n4ccnc4)nn3)c(C(=O)O)cc2F)c(F)cc1C(=O)O)c1ccc(-c2cn[nH]c2)nn1` [Compound 205], in the assay with THP-1 Lucia ISG cells, the EC50 is less than 50 nM.
As to `Cn1nccc1-c1ccc(C(=O)Nc2cc(CCOc3cc(NC(=O)c4ccc(-c5ccnn5C)nn4)c(C(=O)O)cc3F)c(F)cc2C(=O)O)nn1` [Compound 208], on human STING protein, the IC50 was 100 to 1000 nM.
Take `C#Cc1cc(NC(=O)c2ccc(-n3ccnc3)nn2)c(C(=O)O)cc1OCCc1cc(NC(=O)c2ccc(-n3ccnc3)nn2)c(C(=O)O)cc1F` [Compound 209]: the EC50 in the assay with THP-1 Lucia ISG cells was less than 50 nM.
In the case of `O=C(Nc1cc(OCCCOc2cc(NC(=O)c3ccc(-n4ccnc4)nn3)c(C(=O)O)cc2F)c(F)cc1C(=O)O)c1ccc(N2CCOCC2)nn1` [Compound 211], the IC50 on human STING protein fell in the range of 100 to 1000 nM.
